The source of these data is patent publication US5776673A, “Treatment and detection of tuberculosis, leprosy, and related diseases” (priority 1995, dated 1998).

For assay [1], the target named is T1, E. coli DNA polymerase I (Escherichia coli, UniProt P00582). Briefly: Competition of dATP and ddATP at a single site in synthetic Primer-Template A (Example 4). The class given is biochemical. More on the design: The large fragment of E. coli DNA polymerase I, commonly called the Klenow fragment. Conditions: 10 μM dATP; read-out: [ddATP] for 50% inhibition. The method, then:
(§1) Example 4. Determination of the efficiency of incorporation of dideoxynucleotides by measuring the incorporation of [α-^32 P]dAMP into synthetic primer-template complexes
(§2) In this example the competition between a dNTP and a ddNTP is assayed for use at a single site in a synthetic primer-template. This assay differs from the others in that it limits the comparison of the use of the two substrates to a single site, avoiding the complication of sequence-specific variability in discrimination. […]
(§3) Each reaction mixture contains 25 pmoles each of primer and template. […] The mixtures are incubated at 37° C. for 1 min (70° C. for thermophilic DNA polymerases), and the reactions are initiated by the addition of 5 μl aliquots (0.01 to 1 unit) of the DNA polymerase being analyzed diluted in 20 mM Tris.HCl, pH 7.5, 10 mM 2-mercaptoethanol and 0.05% bovine serum albumin. […] The disks are then dried under a heat lamp and counted in a scintillation counter in 5 ml of fluor (Opti-Fluor O, Packard). From the amount of radioactivity on each disk, the amount [^32 P]dGMP incorporated was determined. […]
(§4) All reactions are carried out with a constant amount of the DNA polymerase being analyzed; the amount of DNA polymerase should be sufficient to replicate 50% of the total […] residues in the single-stranded region of the template in the 10 min incubation in the presence of 10 μM DATP and the absence of ddATP. […]

For assay [2], the target named is T2, T7 DNA polymerase (Escherichia phage T7, UniProt P00581, DEL118-145). The class given is biochemical, Bacteriophage T7. Conditions: for percentage of counts in the first three dideoxy-terminated fragments to the total number of counts in the primers capable of being extended: 100 μM 4dNTPs and 100 μM of one ddNTP; for M, calculated exponential decay function: 1:1 dNTP:ddNTP, fit Y=e^M*X; for Incorporation Rate Ratios dN/ddN: absolute ratios from 1:1 dNTP:ddNTP test; for D, discrimination factor, ratio of use of dNTP to comparable ddNTP: equal concentrations, D=Y/(1-Y) at X=1. On the procedure:
(§5) Reaction conditions are used that are optimum for the DNA polymerase being tested with regard to buffer, pH, salts, and temperature of the reaction. A concentration of DNA polymerase is chosen whereby most of the primers are extended in a 10 min reaction and are terminated by the incorporation of a dideoxynucleotide. The reaction mixture contains 100 μM 4dNTPs and 100 μM of one of the four ddNTPs.
(§6) We used this test to compare the ability of six DNA polymerases to incorporate each of the four ddNMPs.
(§7) The reaction mixtures also contained 10 ng of yeast inorganic pyrophosphatase to inhibit pyrophosphorolysis that could otherwise increase the apparent discrimination by the DNA polymerase (Tabor and Richardson 265 J. Biol. Chem. 8322, 1990). The reactions were initiated by the addition of 2 μl of each DNA polymerase, diluted in 20 mM Tris.HCl, pH 7.5, 10 mM 2-mercaptoethanol and 0.05% bovine serum albumin to a concentration of approximately 0.025 units/μl. […] The reactions were terminated by the addition of 10 μl 90% formamide, 20 mM EDTA, 0.05% bromphenol blue. Each sample was heated at 90° C. for 2 min immediately prior to loading 6 μl of each sample onto a gel consisting of 8% polyacrylamide, 0.4% N,N'-methylenebisacrylamide, 7M urea in 100 mM Tris borate, pH 8.3, 1 mM EDTA. Electrophoresis was at 2000 Volts for 90 min (until the bromphenol blue had just run off the bottom of the gel). After electrophoresis, the gel was dried under vacuum, and autoradiographed. After autoradiography, the distribution of radioactively labeled fragments was determined by Phosphorimager analysis (Molecular Dynamics). Alternatively, the relative intensities of dideoxy-terminated bands can be determined by scanning the autoradiograph using an instrument such as the SciScan 5000 imaging densitometer (United States Biochemical Corp).
(§8) The distribution of radioactivity in the fragments was quantitated by Phosphoimager analysis (Molecular Dynamics). The total amount of labeled primers in each lane was determined by running three control reactions in which no DNA polymerase was present, and the radioactivity in each of the corresponding radioactive bands on the gel at the position of the unextended primer was determined. […] This value is defined as the total number of counts in primers that are capable of being extended by a DNA polymerase.
(§9) The values are presented in the Table below as the percentage of counts in the first three dideoxy-terminated fragments to the total number of counts in the primers capable of being extended by a DNA polymerase.
(§10) As a further test of the efficiency of each DNA polymerase to incorporate dideoxynucleotides, the number of counts in each fragment with a significant signal was determined for each reaction, and the data were plotted as a function of the fragment number using the Macintosh program Kaleidograph Version 3.0 (Synergy Software). The resulting plots were fit to an exponential decay curve using the Kaleidograph library routine for this function. The decay curve is given by the equation: […]

The target in assay [3] is T3, Taq DNA polymerase F667Y (Thermus aquaticus, UniProt P19821, F667Y). The class given is biochemical. The following applies: for M, calculated exponential decay function: 1:1 dNTP:ddNTP, fit Y=e^M*X; for Incorporation Rate Ratios dN/ddN: absolute ratios from 1:1 dNTP:ddNTP test; for D, discrimination factor, ratio of use of dNTP to comparable ddNTP: equal concentrations, D=Y/(1-Y) at X=1. On the procedure: as §5, §6, §7, §8, §9, §10

For assay [4], the target named is T4, Taq DNA polymerase (Thermus aquaticus, UniProt P19821). The experiment in a line: Competition of dATP and ddATP at a single site in synthetic Primer-Template A (Example 4). Type of assay: biochemical. Conditions: 10 μM dATP; read-out: [ddATP] for 50% inhibition. The method, then:
as §1, §2, §3, §4

For assay [5], the target named is T3, Taq DNA polymerase F667Y. The description is as above. Type of assay: biochemical. Conditions: 10 μM dATP; read-out: [ddATP] for 50% inhibition. The method, then:
as §1, §2, §3, §4

Assay [6] deals with T2, T7 DNA polymerase. The description is as above. The class given is biochemical, Bacteriophage T7. Conditions: 10 μM dATP; read-out: [ddATP] for 50% inhibition. The method, then: as §1, §2, §3, §4
Assay [7] concerns the target T5, T7 DNA polymerase Y526F (Escherichia phage T7, UniProt P00581, DEL118-145/Y526F). The assay is described as above. Type of assay: biochemical, Bacteriophage T7. The following applies: 10 μM dATP; read-out: [ddATP] for 50% inhibition. The method, then: as §1, §2, §3, §4
The target of assay [8] is T4, Taq DNA polymerase. Conditions: 10 μM 4 dNTPs, ddNTP 100 to 2,000 μM; factor versus F667Y multiplied by its absolute ratio.
In assay [9] the target is T5, T7 DNA polymerase Y526F. The following applies: 10 μM 4 dNTPs, ddNTP 100 to 2,000 μM; factor versus T7 DNA polymerase multiplied by its absolute ratio.
In assay [10] the target is T1, E. coli DNA polymerase I. Conditions: 10 μM 4 dNTPs, ddNTP 100 to 2,000 μM; factor versus F762Y multiplied by its absolute ratio.

As to `Nc1ncnc2c1ncn2[C@H]1CC[C@@H](COP(=O)(O)OP(=O)(O)OP(=O)(O)O)O1` [ddATP], the IC50 was over 500 µM on E. coli DNA polymerase I [1]; over 500 µM at Taq DNA polymerase [4]; about 5 µM on Taq DNA polymerase F667Y [5]; about 30 µM at T7 DNA polymerase [6]; over 500 µM at T7 DNA polymerase Y526F [7]. Besides, the “percentage of counts in the first three dideoxy-terminated fragments to the total number of counts in the primers capable of being extended” value (“percentage of counts” for short) on T7 DNA polymerase [2] is on record as 66%. Also, the “M, calculated exponential decay function” value at T7 DNA polymerase [2] was -0.356; on Taq DNA polymerase F667Y [3], -0.997. Moreover, the “Incorporation Rate Ratios dN/ddN” value at T7 DNA polymerase [2] was 3.3; on Taq DNA polymerase F667Y [3], 0.59; at Taq DNA polymerase [8], 4,700; at T7 DNA polymerase Y526F [9], 7,300; at E. coli DNA polymerase I [10] it was 720. Also, the “D, discrimination factor, ratio of use of dNTP to comparable ddNTP” value (shortened to “D, discrimination factor, ratio”) on T7 DNA polymerase [2] stood at 2.3; on Taq DNA polymerase F667Y [3] it was 0.59.

For `Nc1ccn([C@H]2CC[C@@H](COP(=O)(O)OP(=O)(O)OP(=O)(O)O)O2)c(=O)n1` [ddCTP], the “percentage of counts” value on T7 DNA polymerase [2] came to 61%. In addition, the “M, calculated exponential decay function” value on T7 DNA polymerase [2] is on record as -0.317; at Taq DNA polymerase F667Y [3] it was -1.44. Also, the “Incorporation Rate Ratios dN/ddN” value on T7 DNA polymerase [2] is reported as 3.7; at Taq DNA polymerase F667Y [3], 0.32; at Taq DNA polymerase [8], 2,600; on T7 DNA polymerase Y526F [9] it was 11,000; at E. coli DNA polymerase I [10], 250. Moreover, the “D, discrimination factor, ratio” value at T7 DNA polymerase [2] was found to be 2.7; at Taq DNA polymerase F667Y [3], 0.32.

Take `Nc1nc2c(ncn2[C@H]2CC[C@@H](COP(=O)(O)OP(=O)(O)OP(=O)(O)O)O2)c(=O)[nH]1` [ddGTP]: the “percentage of counts” value at T7 DNA polymerase [2] is 67%. Further, the “M, calculated exponential decay function” value at T7 DNA polymerase [2] is given as -0.375; on Taq DNA polymerase F667Y [3], -1.18. Further, the “Incorporation Rate Ratios dN/ddN” value was 3.2 on T7 DNA polymerase [2]; 0.45 at Taq DNA polymerase F667Y [3]; 1,400 on Taq DNA polymerase [8]; 6,400 on T7 DNA polymerase Y526F [9]; 140 on E. coli DNA polymerase I [10]. Also, the figures for the “D, discrimination factor, ratio” value on T7 DNA polymerase [2] and at Taq DNA polymerase F667Y [3] were 2.2 and 0.45, respectively.

In the case of `Cc1cn([C@H]2CC[C@@H](COP(=O)(O)OP(=O)(O)OP(=O)(O)O)O2)c(=O)[nH]c1=O` [ddTTP], the “percentage of counts” value on T7 DNA polymerase [2] came out at 76%. Besides, the figures for the “M, calculated exponential decay function” value on T7 DNA polymerase [2] and on Taq DNA polymerase F667Y [3] were -0.450 and -1.01, respectively. The “Incorporation Rate Ratios dN/ddN” value is reported as 2.8 at T7 DNA polymerase [2]; 0.56 on Taq DNA polymerase F667Y [3]; 4,500 at Taq DNA polymerase [8]; 8,400 at T7 DNA polymerase Y526F [9]; 1,100 on E. coli DNA polymerase I [10]. Further, the entries for the “D, discrimination factor, ratio” value on T7 DNA polymerase [2] and at Taq DNA polymerase F667Y [3] were 1.8 and 0.56, respectively.
